According to patent US20130158112A1, “COMPOSITIONS AND METHODS FOR INHIBITING BETA AMYLOID SECRETION” (priority 2011, published 2013):
Where two headings read alike, the source gives them in different places.

Experiments:
Aβ secretion = test: Secreted total Aβ ELISA in conditioned media of H4βAPP695 wt cells; assay type: cell-based, human; conditions: for inhibition at 10 µM / inhibition at 30 µM: Homo sapiens, 24 h, H4βAPP695 wt cells; for inhibition at 30 µM: read-out: Total Aβ (% decrease) 30 μM Mean; for Aβ secretion inhibiting activity (structure activity summary): in words
Description: H4βAPP695 wt cells, a human […] cell line stably transfected with a wtβAPP695 expression vector construct under the control of a CMV promoter (kindly provided by Dr. Chris Eckman from Mayo Clinic, Florida) were cultured as previously described. Twenty-four hours before drug treatment, the media was replaced with serum-free media. Cells were then incubated with drugs (dissolved in DMSO) or vehicle for 24 h for collection of conditioned media and cell lysates. For the PKC inhibitors experiment, three inhibitors were treated 30 min prior to drug challenge. Primary cortical neurons were prepared from embryonic day 18 APP and presenilin 1 (APPswe, PSEN1dE9) transgenic mice on the C57BL/6 genetic background (Jackson Laboratories, strain no. 5864) as previously described. THLE-3 human hepatoma cells (from ATCC) were plated in 24-well plates that were precoated with 10 μg/mL bovine serum albumin, 10 μg/mL fibronectin, and 30 μg/mL bovine type I collagen. The cells were grown in BEGM media (Clonetics) until confluent and treated with drugs at 20 μM for 24 h. This conditioned media was harvested, diluted 1:1 in serum-free medium, and incubated with H4βAPP695 wt cells for 24 h prior to analysis of secreted Aβ, which was compared to the effect of 10 μM drug treatments without prior incubation with the THLE-3 cells. Caco-2 cells (ATCC) were plated in 12-well plates with Transwell inserts (Costar) at 70000 cells per well and grown for 21 days. The media volume of the apical and basal chambers was 0.5 and 1.5 mL, respectively. Transepithelial resistance was measured in each well and found to be >160 Ω/cm^2. Drugs at 40 μM and 20 μg/mL of lucifer yellow were added in serum-free medium to the apical chamber. Four hours later, the basal chamber media was harvested and used to measure lucifer yellow fluorescence to confirm monolayer integrity as well as for treatment of H4βAPP695 wt cells for 24 h prior to analysis of secreted Aβ, which was compared to the effect of direct addition of 10 μM of the corresponding drug.

H4βAPP695 wt cells = test: Cytotoxicity by total cell protein content (BCA) of H4βAPP695 wt cells; conditions: cytotoxicity
[1] = read-out: Total Aβ (% decrease) 10 μM Mean
[2] = relative to vehicle treated control cells, read-out: % β Decrease

melting point | Structure (SMILES) | inhibition at 10 µM (Aβ secretion; [1]) | inhibition at 30 µM (Aβ secretion) | Aβ secretion inhibiting activity (structure activity summary) (Aβ secretion) | Cell protein (% decrease) 10 μM Mean (H4βAPP695 wt cells) | Cell protein (% decrease) 30 μM Mean (H4βAPP695 wt cells) | inhibition at 10 µM (Aβ secretion; [2])
 | O=C(NCCSCc1cccc(OCCOCCO)c1)c1c(Cl)cccc1Cl [Compound 70, 2,6-Dichloro-N-(2-(3-[2-(2-hydroxy-ethoxy)-ethoxy]-benzylsulfanyl)-ethyl)-benzamide] | 17.4% | 24.3% | did not yield good activity | −7.3% | 6.1% | 
166 to 168 °C | N#Cc1c(Cl)cccc1CSCCNC(=O)c1c(Cl)cccc1Cl [Compound 62, 2,6-Dichloro-N-[2-(3-chloro-2-cyano-benzylsulfanyl)-ethyl]-benzamide] | 48.7% | 52.3% |  | 3.5% | 1.3% | 
148 to 150 °C | NC(=O)c1cccc(CSCCNC(=O)c2c(Cl)cccc2Cl)c1 [Compound 45, N-[2-(3-Carbamoyl-benzylsulfanyl)-ethyl]-2,6-dichloro-benzamide] | 6.2% | 32.3% | did not yield good activity | −2.8% | −8.6% | 
 | O=C(NCCCCNC(=O)c1ccccc1Br)c1ccccc1Br [Compound 4] |  |  |  |  |  | 7.9%
156 to 158 °C | O=C(NCCS(=O)(=O)Cc1cccc(Cl)c1)c1c(Cl)cccc1Cl [Compound 66, 2,6-Dichloro-N-[2-(3-chloro-phenylmethanesulfonyl)-ethyl]-benzamide] | 8.9% | 9.3% | No tested substitutions in the linker region were well tolerated | −2.2% | −3.8% | 
80 to 81 °C | COc1ccc(CSCCNC(=O)c2c(Cl)cccc2Cl)cc1 [Compound 26, 2,6-Dichloro-N-[2-(4-methoxy-benzylsulfanyl)-ethyl]-benzamide] | 1.6% | 1.1% | loss of activity | 6.7% | 12.7% | 
 | O=C(NCCSCc1cccc(O)c1O)c1c(Cl)cccc1Cl [Compound 58, 2,6-Dichloro-N-[2-(2,3-dihydroxy-benzylsulfanyl)-ethyl]-benzamide] | -4.3% | 33.1% | lost activity | −4.8% | 14% | 
 | O=C(NCCSCc1ccc(Cl)cc1)c1ccc(Cl)cc1Cl [Compound 2] |  |  |  |  |  | 5.3%
42 to 43 °C | O=C(NC1CC1)c1cccc(CSCCNC(=O)c2c(Cl)cccc2Cl)c1 [Compound 68, 2,6-Dichloro-N-[2-(3-cyclopropylcarbamoyl-benzylsulfanyl)-ethyl]-benzamide] | 1.9% | 11% | did not yield good activity | 0% | −1% | 
 | O=C(NCCSCc1ccccc1)c1ccccc1 [Compound 64, N-(2-Benzylsulfanyl-ethyl)-benzamide] | -5.7% | 5.5% |  | 0.7% | −4.1% | 
39 to 41 °C | O=C(NCCSCc1cccc(F)c1)c1c(F)cccc1F [Compound 46, 2,6-Difluoro-N-[2-(3-fluoro-benzylsulfanyl)-ethyl]-benzamide] | -16.8% | -15.5% |  | 0.1% | 1.8% | 
70 to 72 °C | O=C(NCCSCc1cccc(F)c1)c1c(Cl)cccc1Cl [Compound 47, 2,6-Dichloro-N-[2-(3-fluoro-benzylsulfanyl)-ethyl]-benzamide] | 10.2% | 36.1% | did not yield good activity | 2.6% | 3.7% | 
 | O=C(NCCSCc1ccc(Cl)cc1)c1ccccc1Cl [Compound 17] |  |  |  |  |  | -12%
 | O=C(NCCSCc1ccc(Cl)c(Cl)c1)c1ccccc1Cl [Compound 5] |  |  |  |  |  | 0.7%
 | O=C(NCCSCc1ccc(Cl)c(Cl)c1)c1ccc(Cl)cc1Cl [Compound 6] |  |  |  |  |  | 4.3%
 | O=C(NCCCCNC(=O)c1ccccc1F)c1ccccc1F [Compound 25] |  |  |  |  |  | 0.2%
 | COc1cccc(CS(=O)(=O)CCNC(=O)c2c(Cl)cccc2Cl)c1 [Compound 30, 2,6-dichloro-N-[2-(3-methoxy-phenylmethanesulfonyl)-ethyl]-benzamide] | 5.3% | 4.9% | No tested substitutions in the linker region were well tolerated | 1.2% | 8.9% | 
 | COCCCNC(=O)c1c(Cl)cccc1Cl [Compound 8] |  |  |  |  |  | 6.9%
 | N=C(NO)c1cccc(CSCCNC(=O)c2c(Cl)cccc2Cl)c1 [Compound 39, 2,6-Dichloro-N-(2-[3-(N-hydroxycarbamimidoyl)-benzylsulfanyl]-ethyl)-benzamide] | -1.5% | 1.6% | did not yield good activity | 9.2% | 5.9% | 
 | O=C(NCCSCc1cccc(Cl)c1)c1ccccc1Cl [Compound 3] |  |  |  |  |  | 4.7%
 | COc1cccc(C[S+]([O-])CCNC(=O)c2c(Cl)cccc2Cl)c1 (stereo not drawn) [Compound 32, 2,6-dichloro-N-[2-(3-methoxy-phenylmethanesulfinyl)-ethyl]-benzamide] | -13.6% | -15.8% | No tested substitutions in the linker region were well tolerated | 1.6% | 9.2% | 
 | O=C(NCCS(=O)(=O)Cc1ccc(F)cc1)c1c(F)cccc1Cl [Compound 24] |  |  |  |  |  | 39.2%
 | O=C(Cc1c(Cl)cccc1Cl)NCCSCc1cccc(Cl)c1 [Compound 78, N-[2-(3-chloro-benzylsulfanyl)-ethyl]-2-(2,6-dichloro-phenyl)-acetamide] | 6.7% | 13.5% | No tested substitutions in the linker region were well tolerated | −1.3% | −.07% | 
 | Cc1cccc(C)c1C(=O)NCCSCc1cccc(Cl)c1 [Compound 75, N-[2-(3-chloro-benzylsulfanyl)-ethyl]-2,6-dimethyl-benzamide] | 29.5% | 51.6% | not well tolerated | 0.9% | −9.4% | 
 | NC(=O)c1c(Cl)cccc1CSCC(=O)c1c(Cl)cccc1Cl [Compound 61, 2-Chloro-6-((2-(2,6-dichlorophenyl)-2-oxoethylthio)methyl)benzamide] | 44.7% | 49.7% | could be tolerated | 2.5% | −5.6% | 
 | Clc1cccc(CSCCNCc2c(Cl)cccc2Cl)c1 [Compound 57, [2-(3-Chloro-benzylsulfanyl)-ethyl]-(2,6-dichloro-benzyl)-amine] | 45.2% | 45.6% | No tested substitutions in the linker region were well tolerated | −3.6% | 6.6% | 
 | Oc1c(Cl)cc(Cl)cc1/C=N/CCSCc1ccccc1Cl [Compound 23] |  |  |  |  |  | 5.3%
 | O=C(NCCNC(=O)c1c(Cl)cccc1Cl)c1c(Cl)cccc1Cl [Compound 13] |  |  |  |  |  | 7.6%
 | O=C(NCCSCc1ccccc1Cl)c1ccccc1Cl [Compound 16] |  |  |  |  |  | 4%
 | O=C(NCCSCc1ccc(F)cc1)c1c(F)cccc1Cl [Compound 22] |  |  |  |  |  | 27.3%
